Test results published in paper PMC3753695 (Neuron, 2013).

Target: T1, OBP49a (Drosophila melanogaster, UniProt A1Z947)
T1 sequence (A1Z947 23-212): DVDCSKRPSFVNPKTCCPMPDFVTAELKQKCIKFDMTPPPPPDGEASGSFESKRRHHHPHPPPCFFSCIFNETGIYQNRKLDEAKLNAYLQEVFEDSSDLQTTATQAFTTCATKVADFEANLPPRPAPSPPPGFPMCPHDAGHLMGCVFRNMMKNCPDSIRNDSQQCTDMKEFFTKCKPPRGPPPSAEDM
Assay: surface plasmon resonance
Type: binding
Settings: pH 7.4; 25 °C; HBS-P (10 mM HEPES, 150 mM NaCl, 0.005 % Surfactant P20); dose-dependent

Row | SMILES | surface plasmon resonance (BIAcore 3000, OBP49a on CM5 chip)
1 | COc1ccc2cc3[n+](cc2c1OC)CCc1cc2c(cc1-3)OCO2 [berberine] | berberine, denatonium and quinine bound to OBP49a in a dosedependent manner
2 | CC[N+](CC)(CC(=O)Nc1c(C)cccc1C)Cc1ccccc1 [denatonium] | berberine, denatonium and quinine bound to OBP49a in a dosedependent manner
3 | C=C[C@H]1CN2CC[C@H]1C[C@H]2[C@H](O)c1ccnc2ccc(OC)cc12 [quinine] | berberine, denatonium and quinine bound to OBP49a in a dosedependent manner
